Measured values from patent publication US4363793A, “Diagnostic radiopharmaceuticals for localization in target tissues exhibiting a regional pH shift relative to surrounding tissues” (State University of New York, priority 1980, dated 1982).

Key:
[1] = Brain imaging study on rhesus monkey (Cleon 710 ECAT scanner); format: in vivo, rhesus monkeys; conditions: 5.3 kg monkey, 1 mCi injected, images 15 minutes to 2 hours
Description: In addition to the above described organ and tissue distribution studies in rats of the several compounds of the present invention, brain imaging studies were also conducted on rhesus monkeys using a Cleon 710 ECAT scanner.
A 5.3 kg monkey, lightly sedated with Ketalar, was injected with 1 mCi of di-β-(morpholinoethyl)-selenide, (specific activity 1 mCi/mg). Five minutes later the monkey was anaesthetized with pentabarbital. A series of tomographic images was taken at roughly 1/2" intervals starting at the vertex. The first image was started 15 minutes after injection and various images were recorded up to 2 hours after injection. Each image contained approximately one million counts. At the conclusion of the imaging experiment, the monkey was killed and the brain was assayed in the dose calibrator used for measuring the injected dose. No correction was applied for the change in geometry between the syringe and the monkey brain. The weight of the brain was 84 g.

[2] = Organ distribution of Se-75 labeled compound in rats after intravenous injection; format: in vivo, Spraque-Dawley male rats; conditions: rat; for % dose/organ, blood: blood assumed 7% of body weight; for % dose/organ, muscle: muscle assumed 40% of body weight
From the text: FIGS. 2 and 3 respectively show the relative concentration of Se-75 labeled di-β-(piperidinoethyl)-selenide and di-β-(morpholinoethyl)-selenide in rat brains at several time intervals after an intravenous injection of a dose of the respective compounds into the rat. As is shown in FIG. 3, and also in Table 4, two minutes after an intravenous injection of Se-75 labeled di-β-(morpholinoethyl)-selenide, the brain uptake of the radiopharmaceutical compound reaches a value of 3.19%. […] The terms uptake, % uptake or % dose are used to describe the percentage of the radiopharmaceutical compound contained in a given organ or tissue as compared to the total initial dose. The numerical values in FIGS. 2 and 3 and Tables 3 and 4 represent such percentages.
Studies of distribution of the radiopharmaceutical compounds of the present invention in rats, the results of which are reflected in FIGS. 2 and 3 and Tables 3 and 4, were conducted according to standard practice in the pharmacological sciences, and therefore need not be described here in great detail. Nevertheless, for the sake of complete understanding of the present invention, some experimental details of these studies are briefly described below:
Spraque-Dawley male rats (220-300 g) were injected intravenously (femoral vein) with a 0.2 ml solution (0.5-2 micro Ci) under light ether anaesthesia. At different time periods after the injection, the animals were sacrificed and organs of interest were excised and counted in a well counter. Percent dose was estimated by comparison of tissue counts to suitably diluted aliquots of the injected material. Total activities in blood and muscle were calculated by assuming that they are 7% and 40% of the body weight respectively.

[3] = n-octanol-aqueous medium partition coefficient pH correlation; format: physicochemical; conditions: pH 7.4; morpholinoethyl vs piperidinoethyl selenide
From the text: The n-octanol-aqueous medium partition coefficients of the compound are readily measured in accordance with standard practice in the prior art. Briefly, such measurements include the steps of dissolving a known amount of the compound in an aqueous buffer of a predetermined pH and extracting the buffer solution with a known amount of n-octanol until an equilibrium of distribution of the compound between the aqueous and n-octanol phases occurs. The concentration of the compound in both phases is then measured by suitable analytical means, such as ultraviolet spectrophotometry; the partition coefficient being the ratio of the two measured concentrations.
For the purposes of evaluating a plurality of radioactive compounds for use in the novel method of the present invention, the n-octanol-aqueous medium partition coefficients of the compounds were measured in the following manner. The radioactive compound was mixed with 1.0 ml of n-octanol and 1.0 ml of buffer of the desired predetermined pH. The radioactivity of this mixture was counted, and the mixture was placed in a water bath shaker at 37° C. for 2 hours. After centrifugation at 3,000 rpm for 5 minutes, the n-octanol layer was separated and its radioactivity counted. The partition coefficient of the compound was calculated by the following equation: [formula]

[4] = i.v., 15 min (average of 6 rats)

C1CN(CC[75Se]CCN2CCOCC2)CCO1 [di-β-(morpholinoethyl)-selenide]
distribution in monkey brain (in words) [1]: resembles the distribution observed for F-18 2-fluoro-2-deoxyglucose or for N-13 labeled ammonia, with a higher uptake of the radiopharmaceutical compound in gray matter of the brain than in white matter
decrease of brain content (% dose) (in words) ([2]; after intravenous injection): decreases much more rapidly after the intravenous injection than that of di-β-(piperidinoethyl)-selenide
penetration of the blood brain barrier (in words) ([2]; i.v.): capable of penetrating the blood brain barrier
% dose/organ, heart ([2]; i.v., 2 min): 0.45%
% dose/organ, kidney ([2]; i.v., 2 min): 9.89%
% dose/organ, liver ([2]; i.v., 2 min): 18.3%
% dose/organ, lung(2) ([2]; i.v., 2 min): 2.77%
% dose/organ, pancreas ([2]; i.v., 2 min): 0.88%
% dose/organ, spleen ([2]; i.v., 2 min): 0.68%
% dose/organ, brain (brain uptake) ([2]; i.v., 2 min (morpholinoethyl: average of 5 samples)): 3.19%
% dose/organ, blood ([2]; i.v., 2 min): 3.13%
% dose/organ, muscle ([2]; i.v., 2 min): 10.5%
% dose/organ, brain (brain uptake) ([2]; i.v., 5 min): 2.80%
% dose/organ, kidney ([2]; i.v., 5 min): 7.46%
% dose/organ, liver ([2]; i.v., 5 min): 19.7%
% dose/organ, spleen ([2]; i.v., 5 min): 0.87%
% dose/organ, blood ([2]; i.v., 5 min): 2.72%
% dose/organ, muscle ([2]; i.v., 5 min): 15.0%
% dose/organ, brain (brain uptake) [2, 4]: 2.23%
% dose/organ, kidney [2, 4]: 4.04%
% dose/organ, liver [2, 4]: 22.1%
% dose/organ, spleen [2, 4]: 1.23%
% dose/organ, blood [2, 4]: 2.26%
% dose/organ, muscle [2, 4]: 19.4%
% dose/organ, brain (brain uptake) ([2]; i.v., 30 min): 1.53%
% dose/organ, heart ([2]; i.v., 30 min): 0.22%
% dose/organ, kidney ([2]; i.v., 30 min): 4.03%
% dose/organ, liver ([2]; i.v., 30 min): 23.3%
% dose/organ, lung(2) ([2]; i.v., 30 min): 1.79%
% dose/organ, pancreas ([2]; i.v., 30 min): 0.38%
% dose/organ, spleen ([2]; i.v., 30 min): 1.55%
% dose/organ, blood ([2]; i.v., 30 min): 2.82%
% dose/organ, muscle ([2]; i.v., 30 min): 14.4%
% dose/organ, brain (brain uptake) ([2]; i.v., 1 hr): 1.19%
% dose/organ, kidney ([2]; i.v., 1 hr): 4.30%
% dose/organ, liver ([2]; i.v., 1 hr): 29.9%
% dose/organ, blood ([2]; i.v., 1 hr): 2.61%
% dose/organ, muscle ([2]; i.v., 1 hr): 13.6%
% dose/organ, brain (brain uptake) ([2]; i.v., 2 hr): 0.56%
% dose/organ, heart ([2]; i.v., 2 hr): 0.18%
% dose/organ, kidney ([2]; i.v., 2 hr): 3.42%
% dose/organ, liver ([2]; i.v., 2 hr): 21.7%
% dose/organ, lung(2) ([2]; i.v., 2 hr): 0.94%
% dose/organ, pancreas ([2]; i.v., 2 hr): 0.25%
% dose/organ, spleen ([2]; i.v., 2 hr): 0.88%
% dose/organ, blood ([2]; i.v., 2 hr): 2.46%
% dose/organ, muscle ([2]; i.v., 2 hr): 17.7%
% dose/organ, brain (brain uptake) ([2]; i.v., 6 hr): 0.10%
% dose/organ, kidney ([2]; i.v., 6 hr): 0.64%
% dose/organ, liver ([2]; i.v., 6 hr): 4.38%
% dose/organ, spleen ([2]; i.v., 6 hr): 0.19%
% dose/organ, blood ([2]; i.v., 6 hr): 0.61%
% dose/organ, muscle ([2]; i.v., 6 hr): 3.43%
% dose/organ, brain (brain uptake) ([2]; i.v., 24 hr): 0.02%
% dose/organ, heart ([2]; i.v., 24 hr): 0.02%
% dose/organ, kidney ([2]; i.v., 24 hr): 0.29%
% dose/organ, liver ([2]; i.v., 24 hr): 2.15%
% dose/organ, lung(2) ([2]; i.v., 24 hr): 0.04%
% dose/organ, pancreas ([2]; i.v., 24 hr): 0.01%
% dose/organ, spleen ([2]; i.v., 24 hr): 0.10%
% dose/organ, blood ([2]; i.v., 24 hr): 0.13%
% dose/organ, muscle ([2]; i.v., 24 hr): 0.74%
partition coefficient / lipid solubility at the pH of the blood (in words) [3]: higher partition coefficient at the pH of the blood (7.4) than di-β-(piperidinoethyl)-selenide
